The target of assay [1] is T1, hsMTHFD2 (Homo sapiens, UniProt P13995).
T1 construct: His-tag (vector pHis-TEV) (cleaved yes); made in house; host or cells: E. coli BL21 (DE3)
T1 sequence (P13995 36-350): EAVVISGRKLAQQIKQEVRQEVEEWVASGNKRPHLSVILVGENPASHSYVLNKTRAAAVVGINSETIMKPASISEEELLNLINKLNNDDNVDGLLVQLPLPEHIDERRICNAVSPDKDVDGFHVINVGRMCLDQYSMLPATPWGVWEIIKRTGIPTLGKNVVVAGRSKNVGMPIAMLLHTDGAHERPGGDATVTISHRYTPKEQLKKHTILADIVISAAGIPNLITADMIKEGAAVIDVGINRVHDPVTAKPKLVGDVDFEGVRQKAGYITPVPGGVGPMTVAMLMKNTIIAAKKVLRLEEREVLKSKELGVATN
Nature of the assay: hsMTHFD2 cyclohydrolase (CYH) enzyme assay. The format is biochemical. Here is the method:
(§1) (6R,S)-5,10-Methylene-5,6,7,8-tetrahydrofolic acid ((6R,S)-5,10-CH2-THF) calcium salt and (6R,S)-5,10-Methenyl-5,6,7,8-tetrahydrofolic acid ((6R,S)-5,10-CH=THF) chloride were purchased from Schircks Laboratories (Bauma, Switzerland) and used as substrates for FolD dehydrogenase and cyclohydrolase enzyme assays, respectively. Only the R-isomer, which accounts for 50% of (6R,S)-5,10-CH2-THF and (6R,S)-5,10-CH=THF, respectively, is used by the enzyme. (6R,S)-5,10-CH2-THF was dissolved in N2-spargeled basic buffer (50 mM Tris-HCl (pH 8.0), 100 mM β-mercaptoethanol) as described by Varshney et al.[25]. (6R,S)-5,10-CH=THF was dissolved in DMSO as a 100 mM stock solution.
Because FolD is a bifunctional enzyme, dehydrogenase and cyclohydrolase activities were determined for FolD enzyme kinetics, respectively. The dehydrogenase activity of FolD was assayed for its substrate 5,10-CH2-THF and cofactor NADP^+ (in the case of MTHFD2, NAD^+ was used as the cofactor) based on monitoring the formation of 5,10-CH=THF, while the cyclohydrolase activity of FolD was determined for its substrate 5,10-CH=THF by monitoring the hydrolysis of […]. The enzyme kinetics for the dehydrogenase activity of all FolDs except hsMTHFD1_DC were determined at 30 °C in 50 mM Tris-HCl (pH 7.5), 30 mM β-mercaptoethanol. The hsMTHFD1_DC dehydrogenase activity was measured in 25 mM MOPS (pH 7.3), 30 mM β-mercaptoethanol at 30 °C. […] To monitor the formation of 5,10-CH=THF, the absorbance of the reaction mixture was monitored at 350 nm in micro UV cuvettes (BRAND, Essex, Connecticut, USA). The concentration of 5,10-CH=THF produced in the reaction was determined using an extinction co-efficient of 0.0249 μM^−1 cm^−1. […] The consumption of 5,10-CH=THF was measured by recording the absorbance of the reactions at 355 nm using the TECAN Infinite 200 PRO equipped with a monochromator. […] The inhibition constants (K i) of carolacton on FolD were determined by measuring the apparent K m when adding certain amounts of carolacton to the enzyme reactions. […]

The target in assay [2] is T2, ecFolD ΔK54R55 (Escherichia coli, UniProt P24186, DEL54-55).
T2 construct: His-tag (TEV-cleavable, vector pHis-TEV); made in house; host or cells: E. coli BL21 (DE3)
Nature of the assay: ecFolD ΔK54R55 mutant dehydrogenase (DH) enzyme assay. Type of assay: biochemical, E. coli. Here is the method: as §1
(§2) Because FolD is a bifunctional enzyme, dehydrogenase and cyclohydrolase activities were determined for FolD enzyme kinetics, respectively. The dehydrogenase activity of FolD was assayed for its substrate 5,10-CH2-THF and cofactor NADP^+ (in the case of MTHFD2, NAD^+ was used as the cofactor) based on monitoring the formation of 5,10-CH=THF, while the cyclohydrolase activity of FolD was determined for its substrate 5,10-CH=THF by monitoring the hydrolysis of […]. The enzyme kinetics for the dehydrogenase activity of all FolDs except hsMTHFD1_DC were determined at 30 °C in 50 mM Tris-HCl (pH 7.5), 30 mM β-mercaptoethanol. […]

For assay [3], the system named is U-937. Nature of the assay: Cytotoxicity screening, U-937 (alamar blue). Type of assay: cell-based, human. The following applies: for EC50: 5 d, alamar blue. The method, then: Half maximal effective concentrations (EC50) on human cancer cell lines were determined as described elsewhere. Human cancer cell lines were maintained as recommended by the depositor (German Collection of Microorganisms and Cell Cultures, DSMZ) and were treated for 5 d with carolacton in serial dilution. The viability of adherent cell types, HCT-116 (ACC 581), KB-3.1 (ACC-158) and KB-V.1 (ACC-149) was assessed by the addition of MTT tetrazolium salt and absorbance measurement at 570 nm. Histiocytic lymphoma U-937 cells (ACC-5) were maintained in RPMI 1640 medium and transferred into folate-free medium prior to the assay. Cell viability was determined by measuring alamar blue fluorescence emission at 590 nm. The values were referenced and EC50 values were determined by sigmoidal curve fitting. The cell lines KB-3.1 and KB-V.1 are originally derived from HeLa, whereas the latter is an MDR subclone of KB-3.1. They were used to directly compare the activity of carolacton on an mdr1 overexpressing and a sensitive cell line.
For orientation: Alamar Blue is a resazurin reagent that responds to reducing activity.

The target of assay [4] is T3, ecFolD K54N (Escherichia coli, UniProt P24186, K54N).
T3 construct: His-tag (TEV-cleavable, vector pHis-TEV); made in house; host or cells: E. coli BL21 (DE3)
Nature of the assay: ecFolD K54N mutant dehydrogenase (DH) enzyme assay. Type of assay: biochemical, E. coli. Here is the method: as §1, §2

The text below walks through data of PMC5688156, “The natural product carolacton inhibits folate-dependent C1 metabolism by targeting FolD/MTHFD” (Nature Communications, 2017).

Take `CO[C@H](CC(=O)O)[C@@H](C)C(=O)[C@H](C)/C=C(\C)[C@H]1OC(=O)[C@H](O)[C@H](O)/C=C/[C@H](C)CCC[C@@H]1C` [carolacton]: the IC50 in assay [1] (5 nM enzyme, read-out: IC50, carolacton inhibition on CYH activity) turned out to be 85.7 nM. In addition, in assay [1] (5 nM enzyme, read-out: IC80, carolacton inhibition on CYH activity), the IC80 came to 202 nM. The Ki in assay [1] (vs 5,10-CH=THF, read-out: Ki (5,10-CH=THF), carolacton inhibition on CYH activity) came to 12.7 nM. The “sensitivity of residual DH activity to carolacton” value in assay [2] and in assay [4] was “completely insensitive” in each case. Besides, the EC50 in assay [3] (Homo sapiens, U-937, 120 h, folate-depleted medium) is 42000 nM; in assay [3] (Homo sapiens, U-937, 120 h, normal culture medium (RPMI 1640)) it was > 100000 nM; in assay [3] (folate-depleted medium) it was 41700 ± 15200 nM. In addition, the Maximum inhibition in assay [3] (folate-depleted medium) is recorded as 65–75%.

The term IC50 denotes the midpoint of a concentration-inhibition curve. For orientation: IC80 means the point of the concentration-response curve where the effect stands at 80%. As usually defined, the Ki is the dissociation constant of the complex between target and ligand, obtained from inhibition or displacement. In general, EC50 refers to the concentration that produces a half-maximal response. A high value points to a less potent agent.
